The values below come from ChEMBL document CHEMBL1137242, “Application of azide-alkyne cycloaddition 'click chemistry' for the synthesis of Grb2 SH2 domain-binding macrocycles” (Bioorg Med Chem Lett, 2006).

Usually Kd stands for the equilibrium constant for the complex coming apart.

Starred links: 1 amine or outer side, 2 acyl side, 3 side chain; linkers in the order of their positions; H or OH if unused. Non-standard residues stand in square brackets, D forms with d. Residues, ends and D or L forms follow the SMILES beside them. *: point of attachment. Pmp = N[C@@H](Cc1ccc(CP(=O)(O)O)cc1)C(=O)O; X1 = O=C(Cn1cc(CCCN[*:1])nn1)[*:2]; Ac6c = NC1(C(=O)O)CCCCC1; NHPentyl = CCCCCN*

The target of the experiment is Growth factor receptor-bound protein 2 (Homo sapiens, UniProt P62993). The experiment is described as follows: Binding affinity to Grb2-SH2 domain.
Growth factor receptor-bound protein 2, sequence (P62993 whole entry, the tested form may be a part): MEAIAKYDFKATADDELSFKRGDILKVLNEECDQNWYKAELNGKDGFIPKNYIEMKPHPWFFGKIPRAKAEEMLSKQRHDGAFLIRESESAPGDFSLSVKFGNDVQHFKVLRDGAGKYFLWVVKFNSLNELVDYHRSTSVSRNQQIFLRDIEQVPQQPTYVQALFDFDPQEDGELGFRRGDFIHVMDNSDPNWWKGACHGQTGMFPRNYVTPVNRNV
With `NC(=O)C[C@@H]1NC(=O)C2(CCCCC2)NC(=O)[C@@H](Cc2ccc(CP(=O)(O)O)cc2)NC(=O)Cn2cc(nn2)CCCNC(=O)[C@H](CC(N)=O)NC(=O)C2(CCCCC2)NC(=O)[C@@H](Cc2ccc(CP(=O)(O)O)cc2)NC(=O)Cn2cc(nn2)CCCNC1=O`, the equilibrium dissociation constant (Kd) is over 1 µM. With `NC(=O)C[C@@H]1NC(=O)C2(CCCCC2)NC(=O)[C@H](Cc2ccc(CP(=O)(O)O)cc2)NC(=O)Cn2cc(nn2)CCCNC1=O`, the Kd is 0.23 µM. In other words, the sub-micromolar range. For `NC(=O)C[C@@H]1NC(=O)C2(CCCCC2)NC(=O)[C@@H](Cc2ccc(CP(=O)(O)O)cc2)NC(=O)Cn2cc(nn2)CCCNC1=O`, the dissociation constant Kd is over 1 µM. As to `NC(=O)C[C@@H]1NC(=O)C2(CCCCC2)NC(=O)[C@H](Cc2ccc(CP(=O)(O)O)cc2)NC(=O)Cn2cc(nn2)CCCNC(=O)[C@H](CC(N)=O)NC(=O)C2(CCCCC2)NC(=O)[C@H](Cc2ccc(CP(=O)(O)O)cc2)NC(=O)Cn2cc(nn2)CCCNC1=O`, the Kd was found to be 0.0018 µM. The figure for `C#CCCCNC(=O)[C@H](CC(N)=O)NC(=O)C1(NC(=O)[C@H](Cc2ccc(CP(=O)(O)O)cc2)NC(=O)CN=[N+]=[N-])CCCCC1` is over 1 µM; for `CCCCCNC(=O)[C@H](CC(N)=O)NC(=O)C1(NC(=O)[C@H](Cc2ccc(CP(=O)(O)O)cc2)NC(=O)Cn2cc(CCCNC(=O)[C@H](CC(N)=O)NC(=O)C3(NC(=O)[C@H](Cc4ccc(CP(=O)(O)O)cc4)NC(C)=O)CCCCC3)nn2)CCCCC1` (Ac-[Pmp][Ac6c]N[X1][Pmp][Ac6c]N-NHPentyl) it is 0.0011 µM.
